Measured values: article PMC6874179, “Development of Macrocycle Kinase Inhibitors for ALK2 Using Fibrodysplasia Ossificans Progressiva‐Derived Endothelial Cells” (JBMR Plus, 2019)

Key:
Assay in all cases: Proqinase Kinase profiling
Format in all cases: biochemical
Settings in all cases: read-out: % inhibition at 100nM
CSNK2A2 = target: T1, CSNK2A2 (Homo sapiens, UniProt P19784)
T1 construct: purchased DiscoverX

EPHA5 = target: T2, EPHA5 (Homo sapiens, UniProt P54756)
T2 construct: purchased DiscoverX

CDK1_cyclinE1 = target: T3, CDK1_cyclinE1 (Homo sapiens, UniProt P06493)
T3 construct: purchased DiscoverX

FRAP1 = target: T4, FRAP1 (Homo sapiens, UniProt P42345)
T4 construct: purchased DiscoverX

PRKCE = target: T5, PRKCE (Homo sapiens, UniProt Q02156)
T5 construct: purchased DiscoverX

RET_R749T = target: T6, RET_R749T (Homo sapiens, UniProt P07949, R749T)
T6 construct: purchased DiscoverX

MYLK = target: T7, MYLK (Homo sapiens, UniProt Q15746)
T7 construct: purchased DiscoverX

TBK1 = target: T8, TBK1 (Homo sapiens, UniProt Q9UHD2)
T8 construct: purchased DiscoverX

STK4 = target: T9, STK4 (Homo sapiens, UniProt Q13043)
T9 construct: purchased DiscoverX
T9 sequence (Q13043 whole entry): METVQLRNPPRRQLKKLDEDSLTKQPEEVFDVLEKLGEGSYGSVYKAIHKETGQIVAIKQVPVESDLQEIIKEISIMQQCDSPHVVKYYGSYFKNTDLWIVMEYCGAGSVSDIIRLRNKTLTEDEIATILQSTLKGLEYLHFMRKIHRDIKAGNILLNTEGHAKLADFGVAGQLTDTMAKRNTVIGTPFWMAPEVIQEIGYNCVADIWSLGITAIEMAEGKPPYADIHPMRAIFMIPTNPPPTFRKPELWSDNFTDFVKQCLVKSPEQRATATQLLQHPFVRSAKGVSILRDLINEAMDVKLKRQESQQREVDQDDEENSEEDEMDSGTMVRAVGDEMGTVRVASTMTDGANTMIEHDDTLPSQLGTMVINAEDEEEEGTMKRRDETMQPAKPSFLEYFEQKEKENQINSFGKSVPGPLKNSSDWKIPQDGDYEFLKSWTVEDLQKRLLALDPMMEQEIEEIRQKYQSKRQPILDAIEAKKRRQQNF

PIM1 = target: T10, PIM1 (Homo sapiens, UniProt P11309)
T10 construct: purchased DiscoverX

JAK3 = target: T11, JAK3 (Homo sapiens, UniProt P52333)
T11 construct: purchased DiscoverX
T11 sequence (P52333 whole entry): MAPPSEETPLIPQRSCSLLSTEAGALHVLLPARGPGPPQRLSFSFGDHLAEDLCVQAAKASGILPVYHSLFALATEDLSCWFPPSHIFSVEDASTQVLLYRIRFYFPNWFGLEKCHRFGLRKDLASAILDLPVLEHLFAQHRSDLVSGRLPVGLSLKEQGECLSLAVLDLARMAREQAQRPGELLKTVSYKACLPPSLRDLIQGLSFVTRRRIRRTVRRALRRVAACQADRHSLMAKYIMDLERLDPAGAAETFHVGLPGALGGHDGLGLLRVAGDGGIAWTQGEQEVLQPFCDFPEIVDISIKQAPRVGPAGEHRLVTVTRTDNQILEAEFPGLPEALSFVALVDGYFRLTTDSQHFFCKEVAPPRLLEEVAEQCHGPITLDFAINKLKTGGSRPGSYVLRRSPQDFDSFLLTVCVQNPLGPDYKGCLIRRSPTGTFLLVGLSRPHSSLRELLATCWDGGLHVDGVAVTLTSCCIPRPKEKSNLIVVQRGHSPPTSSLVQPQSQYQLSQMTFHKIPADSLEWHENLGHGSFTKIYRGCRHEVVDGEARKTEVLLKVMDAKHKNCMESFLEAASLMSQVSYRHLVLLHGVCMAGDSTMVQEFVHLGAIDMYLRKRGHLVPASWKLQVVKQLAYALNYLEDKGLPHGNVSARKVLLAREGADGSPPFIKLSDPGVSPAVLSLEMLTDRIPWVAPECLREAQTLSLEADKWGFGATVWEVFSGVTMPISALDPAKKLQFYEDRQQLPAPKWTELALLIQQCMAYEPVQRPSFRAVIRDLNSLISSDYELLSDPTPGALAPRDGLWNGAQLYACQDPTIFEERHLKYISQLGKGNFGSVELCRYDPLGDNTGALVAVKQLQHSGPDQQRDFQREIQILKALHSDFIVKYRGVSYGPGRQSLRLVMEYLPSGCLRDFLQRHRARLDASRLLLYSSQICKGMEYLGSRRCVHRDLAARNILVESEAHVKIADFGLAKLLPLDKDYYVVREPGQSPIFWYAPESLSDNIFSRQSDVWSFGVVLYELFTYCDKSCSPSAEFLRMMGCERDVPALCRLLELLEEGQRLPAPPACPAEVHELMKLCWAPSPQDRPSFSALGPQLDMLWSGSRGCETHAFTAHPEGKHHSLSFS

WEE1 = target: T12, WEE1 (Homo sapiens, UniProt P30291)
T12 construct: purchased DiscoverX

PBK = target: T13, PBK (Homo sapiens, UniProt Q96KB5)
T13 construct: purchased DiscoverX

IRAK4 = target: T14, IRAK4 (Homo sapiens, UniProt Q9NWZ3)
T14 construct: purchased DiscoverX

ZAK = target: T15, ZAK (Homo sapiens, UniProt Q9NYL2)
T15 construct: purchased DiscoverX

ALK_R1275Q = target: T16, ALK_R1275Q (Homo sapiens, UniProt Q9UM73, R1275Q)
T16 construct: purchased DiscoverX

BRAF = target: T17, BRAF (Homo sapiens, UniProt P15056)
T17 construct: purchased DiscoverX

YES1 = target: T18, YES1 (Homo sapiens, UniProt P07947)
T18 construct: purchased DiscoverX
T18 sequence (P07947 whole entry): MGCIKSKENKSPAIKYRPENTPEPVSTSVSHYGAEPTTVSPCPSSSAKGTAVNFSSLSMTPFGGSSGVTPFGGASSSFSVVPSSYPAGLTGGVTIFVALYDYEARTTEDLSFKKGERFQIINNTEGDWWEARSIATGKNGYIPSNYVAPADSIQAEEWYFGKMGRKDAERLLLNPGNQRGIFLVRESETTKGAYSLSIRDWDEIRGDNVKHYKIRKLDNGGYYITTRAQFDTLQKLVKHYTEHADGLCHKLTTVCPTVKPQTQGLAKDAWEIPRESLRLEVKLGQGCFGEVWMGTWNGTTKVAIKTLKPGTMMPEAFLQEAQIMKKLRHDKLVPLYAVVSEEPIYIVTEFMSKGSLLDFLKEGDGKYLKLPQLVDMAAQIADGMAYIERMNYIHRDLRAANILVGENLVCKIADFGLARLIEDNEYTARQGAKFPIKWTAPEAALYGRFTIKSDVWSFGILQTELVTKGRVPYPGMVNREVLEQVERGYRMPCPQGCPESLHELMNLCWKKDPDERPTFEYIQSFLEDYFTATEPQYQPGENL

MUSK = target: T19, MUSK (Homo sapiens, UniProt O15146)
T19 construct: purchased DiscoverX

CLK3 = target: T20, CLK3 (Homo sapiens, UniProt P49761)
T20 construct: purchased DiscoverX

SRPK3 = target: T21, SRPK3 (Homo sapiens, UniProt Q9UPE1)
T21 construct: purchased DiscoverX

LIMK2 = target: T22, LIMK2 (Homo sapiens, UniProt P53671)
T22 construct: purchased DiscoverX

SIK2 = target: T23, SIK2 (Homo sapiens, UniProt Q9H0K1)
T23 construct: purchased DiscoverX

ACVR1B = target: T24, ACVR1B (Homo sapiens, UniProt P36896)
T24 construct: purchased DiscoverX

EPHB3 = target: T25, EPHB3 (Homo sapiens, UniProt P54753)
T25 construct: purchased DiscoverX

PHKG2 = target: T26, PHKG2 (Homo sapiens, UniProt P15735)
T26 construct: purchased DiscoverX

HCK = target: T27, HCK (Homo sapiens, UniProt P08631)
T27 construct: purchased DiscoverX

GSK3A = target: T28, GSK3A (Homo sapiens, UniProt P49840)
T28 construct: purchased DiscoverX

NTRK3 = target: T29, NTRK3 (Homo sapiens, UniProt Q16288)
T29 construct: purchased DiscoverX

KIT_V559D = target: T30, KIT_V559D (Homo sapiens, UniProt P10721, V559D)
T30 construct: purchased DiscoverX
T30 sequence (P10721 26-976 V559D): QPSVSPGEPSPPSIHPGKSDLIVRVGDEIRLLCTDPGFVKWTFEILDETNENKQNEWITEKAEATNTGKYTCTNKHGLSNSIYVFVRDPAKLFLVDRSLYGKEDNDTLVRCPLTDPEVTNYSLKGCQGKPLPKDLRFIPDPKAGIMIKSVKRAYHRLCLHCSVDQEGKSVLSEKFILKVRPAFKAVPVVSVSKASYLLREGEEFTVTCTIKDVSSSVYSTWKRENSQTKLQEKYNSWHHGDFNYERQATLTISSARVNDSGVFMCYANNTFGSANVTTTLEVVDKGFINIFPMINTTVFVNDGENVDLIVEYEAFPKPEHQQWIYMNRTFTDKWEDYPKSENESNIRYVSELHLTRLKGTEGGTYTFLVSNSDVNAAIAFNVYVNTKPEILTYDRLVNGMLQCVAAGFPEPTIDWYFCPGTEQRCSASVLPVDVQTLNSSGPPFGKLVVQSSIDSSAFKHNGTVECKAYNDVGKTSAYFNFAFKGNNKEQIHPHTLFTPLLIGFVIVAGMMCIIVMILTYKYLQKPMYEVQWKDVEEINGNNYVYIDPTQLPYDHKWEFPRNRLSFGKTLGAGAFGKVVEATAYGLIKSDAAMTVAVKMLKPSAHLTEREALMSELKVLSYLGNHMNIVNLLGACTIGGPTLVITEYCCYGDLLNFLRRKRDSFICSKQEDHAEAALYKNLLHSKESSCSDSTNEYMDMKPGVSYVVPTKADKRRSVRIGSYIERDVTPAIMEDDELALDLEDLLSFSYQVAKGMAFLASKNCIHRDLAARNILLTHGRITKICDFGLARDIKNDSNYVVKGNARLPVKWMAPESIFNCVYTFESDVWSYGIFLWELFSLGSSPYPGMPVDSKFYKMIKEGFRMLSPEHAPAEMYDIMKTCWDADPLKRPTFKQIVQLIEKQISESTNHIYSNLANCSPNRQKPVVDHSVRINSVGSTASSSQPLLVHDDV

CDK8_cyclinC = target: T31, CDK8_cyclinC (Homo sapiens, UniProt P49336)
T31 construct: purchased DiscoverX

IKBKE = target: T32, IKBKE (Homo sapiens, UniProt Q14164)
T32 construct: purchased DiscoverX

FGFR3_G697C = target: T33, FGFR3_G697C (Homo sapiens, UniProt P22607, G697C)
T33 construct: purchased DiscoverX

TSSK2 = target: T34, TSSK2 (Homo sapiens, UniProt Q96PF2)
T34 construct: purchased DiscoverX

PDGFRA = target: T35, PDGFRA (Homo sapiens, UniProt P16234)
T35 construct: purchased DiscoverX

NEK11 = target: T36, NEK11 (Homo sapiens, UniProt Q8NG66)
T36 construct: purchased DiscoverX

RIPK2 = target: T37, RIPK2 (Homo sapiens, UniProt O43353)
T37 construct: purchased DiscoverX
T37 sequence (O43353 whole entry): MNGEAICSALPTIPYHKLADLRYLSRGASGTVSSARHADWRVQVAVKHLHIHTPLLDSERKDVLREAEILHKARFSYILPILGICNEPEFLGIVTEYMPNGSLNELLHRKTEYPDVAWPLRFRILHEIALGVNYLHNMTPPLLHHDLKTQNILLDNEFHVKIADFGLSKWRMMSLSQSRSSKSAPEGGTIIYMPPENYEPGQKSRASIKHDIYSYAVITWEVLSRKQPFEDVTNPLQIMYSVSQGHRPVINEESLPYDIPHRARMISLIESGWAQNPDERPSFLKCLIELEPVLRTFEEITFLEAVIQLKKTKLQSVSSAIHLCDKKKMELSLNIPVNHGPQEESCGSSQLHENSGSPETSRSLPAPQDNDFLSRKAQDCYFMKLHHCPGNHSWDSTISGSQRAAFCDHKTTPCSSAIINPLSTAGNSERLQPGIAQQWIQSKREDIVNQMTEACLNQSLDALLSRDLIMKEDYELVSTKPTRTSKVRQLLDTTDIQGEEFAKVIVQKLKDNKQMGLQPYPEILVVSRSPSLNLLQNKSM

PRKCG = target: T38, PRKCG (Homo sapiens, UniProt P05129)
T38 construct: purchased DiscoverX

PTK2B = target: T39, PTK2B (Homo sapiens, UniProt Q14289)
T39 construct: purchased DiscoverX

EPHA1 = target: T40, EPHA1 (Homo sapiens, UniProt P21709)
T40 construct: purchased DiscoverX
T40 sequence (P21709 26-976): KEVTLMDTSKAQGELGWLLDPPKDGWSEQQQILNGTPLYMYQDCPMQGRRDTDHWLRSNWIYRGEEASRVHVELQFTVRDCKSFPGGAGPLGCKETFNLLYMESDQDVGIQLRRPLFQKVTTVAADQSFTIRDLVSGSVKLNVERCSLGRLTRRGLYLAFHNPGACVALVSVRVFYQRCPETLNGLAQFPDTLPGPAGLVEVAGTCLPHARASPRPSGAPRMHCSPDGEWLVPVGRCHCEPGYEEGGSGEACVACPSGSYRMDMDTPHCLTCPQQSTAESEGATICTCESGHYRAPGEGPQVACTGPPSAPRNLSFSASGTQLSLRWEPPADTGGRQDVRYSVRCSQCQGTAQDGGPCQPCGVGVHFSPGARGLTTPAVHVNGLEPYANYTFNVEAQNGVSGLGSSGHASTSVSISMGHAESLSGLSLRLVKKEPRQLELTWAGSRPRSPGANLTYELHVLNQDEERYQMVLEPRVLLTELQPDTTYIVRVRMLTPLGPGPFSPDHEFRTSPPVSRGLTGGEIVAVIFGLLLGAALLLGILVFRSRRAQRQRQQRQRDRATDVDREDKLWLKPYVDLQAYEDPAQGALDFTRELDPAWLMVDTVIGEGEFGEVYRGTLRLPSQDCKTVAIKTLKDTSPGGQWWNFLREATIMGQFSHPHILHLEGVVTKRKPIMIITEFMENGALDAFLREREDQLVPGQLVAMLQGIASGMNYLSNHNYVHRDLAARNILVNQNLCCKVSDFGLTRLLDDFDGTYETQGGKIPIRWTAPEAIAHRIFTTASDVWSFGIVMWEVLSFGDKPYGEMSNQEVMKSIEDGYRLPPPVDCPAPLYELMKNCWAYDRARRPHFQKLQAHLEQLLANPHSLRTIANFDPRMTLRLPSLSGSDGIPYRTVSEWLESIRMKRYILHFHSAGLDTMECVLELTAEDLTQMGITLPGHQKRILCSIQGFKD

PLK1 = target: T41, PLK1 (Homo sapiens, UniProt P53350)
T41 construct: purchased DiscoverX

GRK5 = target: T42, GRK5 (Homo sapiens, UniProt P34947)
T42 construct: purchased DiscoverX

ABL1_G250E = target: T43, ABL1_G250E (Homo sapiens, UniProt P00519, G250E)
T43 construct: purchased DiscoverX

DYRK1A = target: T44, DYRK1A (Homo sapiens, UniProt Q13627)
T44 construct: purchased DiscoverX

T1 sequence (P19784 whole entry): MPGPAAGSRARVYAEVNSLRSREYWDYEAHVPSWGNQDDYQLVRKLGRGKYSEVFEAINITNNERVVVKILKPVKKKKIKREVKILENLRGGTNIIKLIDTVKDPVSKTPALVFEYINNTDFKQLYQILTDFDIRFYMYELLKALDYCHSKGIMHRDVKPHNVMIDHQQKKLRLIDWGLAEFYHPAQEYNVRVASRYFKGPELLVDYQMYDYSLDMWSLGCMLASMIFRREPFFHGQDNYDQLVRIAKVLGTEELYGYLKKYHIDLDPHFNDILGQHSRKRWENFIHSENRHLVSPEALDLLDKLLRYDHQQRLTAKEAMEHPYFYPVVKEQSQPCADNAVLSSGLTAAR

Clc1cc2cc(c1)-c1cnn3ccc(nc13)NCCOCCO2 [OD36]
inhibition at 0.1 µM (CSNK2A2): 8%
inhibition at 0.1 µM (EPHA5): 10%
inhibition at 0.1 µM (CDK1_cyclinE1): 8%
inhibition at 0.1 µM (FRAP1): 14%
inhibition at 0.1 µM (PRKCE): -1%
inhibition at 0.1 µM (RET_R749T): 30%
inhibition at 0.1 µM (MYLK): 12%
inhibition at 0.1 µM (TBK1): 11%
inhibition at 0.1 µM (STK4): 11%
inhibition at 0.1 µM (PIM1): 29%
inhibition at 0.1 µM (JAK3): 6%
inhibition at 0.1 µM (WEE1): 15%
inhibition at 0.1 µM (PBK): 19%
inhibition at 0.1 µM (IRAK4): 13%
inhibition at 0.1 µM (ZAK): 70%
inhibition at 0.1 µM (ALK_R1275Q): 6%
inhibition at 0.1 µM (BRAF): 20%
inhibition at 0.1 µM (YES1): 28%
inhibition at 0.1 µM (MUSK): -1%
inhibition at 0.1 µM (CLK3): 14%
inhibition at 0.1 µM (SRPK3): 9%
inhibition at 0.1 µM (LIMK2): 6%
inhibition at 0.1 µM (SIK2): 94%
inhibition at 0.1 µM (ACVR1B): 22%
inhibition at 0.1 µM (EPHB3): 1%
inhibition at 0.1 µM (PHKG2): 1%
inhibition at 0.1 µM (HCK): 29%
inhibition at 0.1 µM (GSK3A): 6%
inhibition at 0.1 µM (NTRK3): 17%
inhibition at 0.1 µM (KIT_V559D): 15%
inhibition at 0.1 µM (CDK8_cyclinC): 57%
inhibition at 0.1 µM (IKBKE): 6%
inhibition at 0.1 µM (FGFR3_G697C): -1%
inhibition at 0.1 µM (TSSK2): -6%
inhibition at 0.1 µM (PDGFRA): 29%
inhibition at 0.1 µM (NEK11): 4%
inhibition at 0.1 µM (RIPK2): 97%
inhibition at 0.1 µM (PRKCG): 16%
inhibition at 0.1 µM (PTK2B): -2%
inhibition at 0.1 µM (EPHA1): 6%
inhibition at 0.1 µM (PLK1): 7%
inhibition at 0.1 µM (GRK5): 1%
inhibition at 0.1 µM (ABL1_G250E): 5%
inhibition at 0.1 µM (DYRK1A): 7%

Cc1cc2cc(c1)-c1cnn3ccc(nc13)NCCNC(=O)CCN(C)C2 [OD52]
inhibition at 0.1 µM (CSNK2A2): 5%
inhibition at 0.1 µM (EPHA5): -1%
inhibition at 0.1 µM (CDK1_cyclinE1): -2%
inhibition at 0.1 µM (FRAP1): -1%
inhibition at 0.1 µM (PRKCE): -7%
inhibition at 0.1 µM (RET_R749T): 36%
inhibition at 0.1 µM (MYLK): 11%
inhibition at 0.1 µM (TBK1): -1%
inhibition at 0.1 µM (STK4): 8%
inhibition at 0.1 µM (PIM1): -3%
inhibition at 0.1 µM (JAK3): -3%
inhibition at 0.1 µM (WEE1): 3%
inhibition at 0.1 µM (PBK): -5%
inhibition at 0.1 µM (IRAK4): -2%
inhibition at 0.1 µM (ZAK): 6%
inhibition at 0.1 µM (ALK_R1275Q): -1%
inhibition at 0.1 µM (BRAF): 16%
inhibition at 0.1 µM (YES1): -22%
inhibition at 0.1 µM (MUSK): -11%
inhibition at 0.1 µM (CLK3): 3%
inhibition at 0.1 µM (SRPK3): -5%
inhibition at 0.1 µM (LIMK2): 2%
inhibition at 0.1 µM (SIK2): -1%
inhibition at 0.1 µM (ACVR1B): 13%
inhibition at 0.1 µM (EPHB3): -8%
inhibition at 0.1 µM (PHKG2): -10%
inhibition at 0.1 µM (HCK): 0%
inhibition at 0.1 µM (GSK3A): 1%
inhibition at 0.1 µM (NTRK3): 24%
inhibition at 0.1 µM (KIT_V559D): -6%
inhibition at 0.1 µM (CDK8_cyclinC): 44%
inhibition at 0.1 µM (IKBKE): -21%
inhibition at 0.1 µM (FGFR3_G697C): -10%
inhibition at 0.1 µM (TSSK2): 11%
inhibition at 0.1 µM (PDGFRA): -12%
inhibition at 0.1 µM (NEK11): 4%
inhibition at 0.1 µM (RIPK2): 61%
inhibition at 0.1 µM (PRKCG): 11%
inhibition at 0.1 µM (PTK2B): 6%
inhibition at 0.1 µM (EPHA1): -1%
inhibition at 0.1 µM (PLK1): -1%
inhibition at 0.1 µM (GRK5): 2%
inhibition at 0.1 µM (ABL1_G250E): 6%
inhibition at 0.1 µM (DYRK1A): -4%
